Reference: ChEMBL document CHEMBL5244235, “Diarylpentanoids with antitumor activity: A critical review of structure-activity relationship studies” (Eur J Med Chem, 2020)
Where “and” joins values, the source holds several entries; their conditions need not be identical. Identical values can stand only once. Blank lines part the entries; values can stand above or below the compound they belong to.

Key:
A549 [1] = experiment: Antiproliferative activity against human A549 cells assessed as cell viability by WST-1 assay; assay type: functional, cell-based
MDA-MB-231 [2] = experiment: Antiproliferative activity against human MDA-MB-231 cells assessed as cell viability by WST-1 assay; assay type: functional, cell-based
MG-63 = experiment: Antiproliferative activity against human MG-63 cells assessed as cell viability by WST-1 assay; assay type: functional, cell-based
MDA-MB-468 = experiment: Antiproliferative activity against human MDA-MB-468 cells assessed as cell viability by WST-1 assay; assay type: functional, cell-based
MV4-11 = experiment: Antiproliferative activity against human MV4-11 cells assessed as cell viability by WST-1 assay; assay type: functional, cell-based
NCI-H23 = experiment: Antiproliferative activity against human NCI-H23 cells assessed as cell viability by WST-1 assay; assay type: functional, cell-based
RPMI-7951 = experiment: Growth inhibition of human RPMI-7951 cells measured after 72 hrs by microplate reader analysis; assay type: functional, cell-based
SVR = experiment: Anti-angiogenesis activity in mouse SVR cells assessed as cell growth inhibition; assay type: functional, cell-based
MDA-MB-231 [3] = experiment: Growth inhibition of human MDA-MB-231 cells measured after 72 hrs by microplate reader analysis; assay type: functional
HUVEC [4] = experiment: Anti-angiogenesis activity in HUVEC cells assessed as cell growth inhibition; assay type: functional, cell-based; conditions: Homo sapiens
[5] = Anti-angiogenesis activity in […] MS-1 cells assessed as cell growth inhibition; assay type: functional, cell-based
K562 = experiment: Antiproliferative activity against human K562 cells assessed as cell growth inhibition measured after 24 hrs by MTT assay; assay type: functional, cell-based; conditions: K562, 24 h
HeLa [6] = experiment: Antiproliferative activity against human HeLa cells assessed as cell growth inhibition measured after 24 hrs by MTT assay; assay type: functional, cell-based
THP-1 = experiment: Antiproliferative activity against human THP-1 cells assessed as cell growth inhibition measured after 24 hrs by MTT assay; assay type: functional, cell-based; conditions: THP-1, 24 h
HepG2 = experiment: Antiproliferative activity against human HepG2 cells assessed as cell growth inhibition measured after 24 hrs by MTT assay; assay type: functional, cell-based; conditions: HepG2, 24 h
[7] = Antiproliferative activity against human OVK18 cells assessed as cell growth inhibition measured after 72 hrs; assay type: functional, cell-based; conditions: OVK18, 72 h
HCT-116 [8] = experiment: Antiproliferative activity against human HCT-116 cells assessed as cell growth inhibition measured after 72 hrs; assay type: functional, cell-based; conditions: HCT-116, 72 h
ACHN = experiment: Antiproliferative activity against human ACHN cells assessed as cell growth inhibition measured after 72 hrs; assay type: functional, cell-based
HuCCT-1 = experiment: Antiproliferative activity against human HuCCT-1 cells assessed as cell growth inhibition measured after 72 hrs; assay type: functional, cell-based; conditions: HuCCT-1, 72 h
8505C = experiment: Antiproliferative activity against human 8505C cells assessed as cell growth inhibition measured after 72 hrs; assay type: functional, cell-based
A-431 = experiment: Antiproliferative activity against human A-431 cells assessed as cell growth inhibition measured after 72 hrs; assay type: functional, cell-based; conditions: A-431, 72 h
MCF7 [9] = experiment: Antiproliferative activity against human MCF7 cells assessed as cell growth inhibition measured after 72 hrs; assay type: functional, cell-based; conditions: MCF7, 72 h
A549 [10] = experiment: Antiproliferative activity against human A549 cells assessed as cell growth inhibition measured after 72 hrs; assay type: functional, cell-based; conditions: A549, 72 h
[11] = Antiproliferative activity against human PK-1 cells assessed as cell growth inhibition measured after 72 hrs; assay type: functional, cell-based; conditions: PK-1, 72 h
G-361 = experiment: Antiproliferative activity against human G-361 cells assessed as cell growth inhibition measured after 72 hrs; assay type: functional, cell-based; conditions: G-361, 72 h
PC-3 = experiment: Antiproliferative activity against human PC-3 cells assessed as cell growth inhibition measured after 72 hrs; assay type: functional, cell-based; conditions: PC-3, 72 h
DLD-1 [12] = experiment: Antiproliferative activity against human DLD-1 cells assessed as cell growth inhibition measured after 72 hrs; assay type: functional, cell-based; conditions: DLD-1, 72 h
Huh-7 = experiment: Antiproliferative activity against human Huh-7 cells assessed as cell growth inhibition measured after 72 hrs; assay type: functional, cell-based; conditions: Huh-7, 72 h
[13] = Antiproliferative activity against human SH-10-TC cells assessed as cell growth inhibition measured after 72 hrs; assay type: functional, cell-based
GCIY = experiment: Antiproliferative activity against human GCIY cells assessed as cell growth inhibition measured after 72 hrs; assay type: functional, cell-based
AGS = experiment: Antiproliferative activity against human AGS cells assessed as cell growth inhibition measured upto 72 hrs by MTT assay; assay type: functional, cell-based
KYSE-30 = experiment: Antiproliferative activity against human KYSE-30 cells assessed as cell growth inhibition measured upto 72 hrs by MTT assay; assay type: functional, cell-based; conditions: KYSE-30, 72 h
HeLa [14] = experiment: Antiproliferative activity against human HeLa cells assessed as cell growth inhibition measured after 72 hrs by MTT assay; assay type: functional, cell-based
Ca-Ski = experiment: Antiproliferative activity against human Ca-Ski cells assessed as cell growth inhibition measured after 72 hrs by MTT assay; assay type: functional, cell-based
MDA-MB-231 [15] = experiment: Antiproliferative activity against lung metastasis variant of human MDA-MB-231 cells assessed as cell growth inhibition; assay type: functional, cell-based
[16] = Antiproliferative activity against human MCF-10A cells assessed as cell growth inhibition; assay type: toxicity, cell-based
HCC1419 = experiment: Antiproliferative activity against human HCC1419 cells assessed as cell growth inhibition; assay type: functional, cell-based
MDA-MB-231 [17] = experiment: Antiproliferative activity against human MDA-MB-231 cells assessed as cell growth inhibition; assay type: functional, cell-based
MCF7 [18] = experiment: Antiproliferative activity against human MCF7 cells assessed as cell growth inhibition; assay type: functional, cell-based
HUVEC [19] = experiment: Anti-angiogenesis activity in HUVEC cells; assay type: functional, cell-based; conditions: Homo sapiens
[20] = Cytotoxicity against mouse SVR cells assessed as cell growth inhibition by anti-angiogenisis screening assay; assay type: toxicity, cell-based
[21] = Cytotoxicity against mouse MS-1 cells assessed as cell growth inhibition by anti-angiogenisis screening assay; assay type: toxicity, cell-based
[22] = Antiproliferative activity against human MRC9 cells assessed as cell growth inhibition measured after 72 hrs by MTT assay; assay type: functional, cell-based; conditions: MRC9, 72 h
[23] = Cytotoxicity against HUVEC cells assessed as cell growth inhibition by anti-angiogenisis screening assay; assay type: toxicity, cell-based; conditions: human
DLD-1 [24] = experiment: Antiproliferative activity against human DLD-1 cells assessed as cell growth inhibition measured after 96 hrs; assay type: functional, cell-based; conditions: DLD-1, 96 h
HCT-116 [25] = experiment: Antiproliferative activity against human HCT116 cells assessed as cell growth inhibition measured after 96 hrs; assay type: functional, cell-based; conditions: HCT-116, 96 h

IC50 (A549 [1]): 390 nM
IC50 (MDA-MB-231 [2]): 390 nM
IC50 (MDA-MB-468): 390 nM
IC50 (MV4-11): 390 nM
IC50 (NCI-H23): 390 nM
Structure (SMILES): O=C1/C(=C/c2ccc(Cl)cc2Cl)CNC/C1=C\c1ccc(Cl)cc1Cl
IC50 (MG-63): 390 nM

GI50 (MDA-MB-231 [3]): 900 nM
Structure (SMILES): CN1C/C(=C\c2ccccc2O)C(=O)/C(=C/c2ccccc2O)C1
IC50 (RPMI-7951; RPMI-7951, 72 h): 900 nM
IC50 (SVR): 1100 nM
IC50 (HUVEC [4]): 1100 nM
IC50 [5]: 1100 nM

IC50 (K562): < 5000 nM
IC50 (HeLa [6]): < 5000 nM
IC50 (THP-1): < 5000 nM
IC50 (HepG2): < 5000 nM
Structure (SMILES): O=C1/C(=C/c2cccc(/N=C/c3ccccc3O)c2)CCC/C1=C\c1cccc(/N=C/c2ccccc2O)c1

IC50 (HCT-116 [8]): > 50000 nM
IC50 (ACHN): > 50000 nM
IC50 (A-431): > 50000 nM
IC50 (MCF7 [9]): > 50000 nM
IC50 (A549 [10]): > 50000 nM
IC50 (PC-3): > 50000 nM
IC50 (DLD-1 [12]): > 50000 nM
IC50 (Huh-7): > 50000 nM
Structure (SMILES): COc1ccc(/C=C2\CC(C)C/C(=C\c3ccc(OC)c(OC)c3)C2=O)cc1OC (centres undefined)
IC50 [7]: > 50000 nM
IC50 (HuCCT-1): > 50000 nM
IC50 (8505C): > 50000 nM
IC50 [11]: > 50000 nM
IC50 (G-361): > 50000 nM
IC50 [13]: > 50000 nM
IC50 (GCIY): > 50000 nM

IC50 (A549 [1]): 390 nM
IC50 (MDA-MB-231 [2]): 390 nM
IC50 (MDA-MB-468): 390 nM
IC50 (MV4-11): 390 nM
IC50 (NCI-H23): 390 nM
Structure (SMILES): COc1cc(/C=C2\CN(C(C)=O)C/C(=C\c3cc(OC)c(OC)c(OC)c3)C2=O)cc(OC)c1OC
IC50 (MG-63): 390 nM

IC50 (AGS): 560 nM
Structure (SMILES): C#CCOc1ccc(/C=C2\CCC/C(=C\c3ccc(OCC#C)c(OC)c3)C2=O)cc1OC
IC50 (KYSE-30): 3600 nM

IC50 (AGS): 720 nM
Structure (SMILES): CCOc1ccc(/C=C2\CCC/C(=C\c3ccc(OCC)c(OC)c3)C2=O)cc1OC
IC50 (KYSE-30): 3400 nM

IC50 (K562): < 5000 nM
IC50 (HeLa [6]): < 5000 nM
IC50 (THP-1): < 5000 nM
IC50 (HepG2): < 5000 nM
Structure (SMILES): O=C1/C(=C/c2cccc(/N=C/c3cccc(O)c3O)c2)CCC/C1=C\c1cccc(/N=C/c2cccc(O)c2O)c1

EC50 (HeLa [14]; Homo sapiens, HeLa, 72 h): 1030 nM
Structure (SMILES): O=C(/C=C/c1cccc(F)c1)/C=C/c1cccc(F)c1
EC50 (Ca-Ski): 1030 nM

IC50 (K562): < 5000 nM
IC50 (HeLa [6]): < 5000 nM
IC50 (THP-1): < 5000 nM
IC50 (HepG2): < 5000 nM
Structure (SMILES): O=C1/C(=C/c2cccc(/N=C/c3ccc(O)c(O)c3O)c2)CCC/C1=C\c1cccc(/N=C/c2ccc(O)c(O)c2O)c1

IC50 (AGS): 720 nM
Structure (SMILES): C#CCOc1ccc(/C=C2\CCC/C(=C\c3ccc(OCC#C)cc3)C2=O)cc1
IC50 (KYSE-30): 3400 nM

IC50 (MDA-MB-231 [15]): 530 nM
IC50 (HCC1419): 1460 nM
IC50 (MDA-MB-231 [17]): 720 nM
IC50 (MCF7 [18]): 1640 nM
Structure (SMILES): CCN(CC)CCOc1cccc(C(=O)N2C/C(=C\c3ccccc3)C(=O)/C(=C/c3ccccc3)C2)c1
IC50 [16]: 41000 nM

Structure (SMILES): COCOc1cc(/C=C/C(=O)CC(SCC(=O)OC)c2cc(OCOC)cc(OCOC)c2)cc(OCOC)c1 (centres undefined)
IC50 (HUVEC [19]): 400 nM

EC50 (HeLa [14]; hela): 1030 nM and 2600 nM
GI50 (MDA-MB-231 [3]): 1000 nM
Structure (SMILES): O=C(/C=C/c1ccccc1O)/C=C/c1ccccc1O
GI50 (RPMI-7951; RPMI-7951, time 72 hrs): 2300 nM
EC50 (Ca-Ski): 1030 nM
GI50 [20]: 1800 nM
GI50 [21]: 1800 nM
EC50 [22]: 4600 nM
GI50 [23]: 1800 nM

IC50 (HCT-116 [8]): > 50000 nM
IC50 (ACHN): > 50000 nM
IC50 (A-431): > 50000 nM
IC50 (MCF7 [9]): > 50000 nM
IC50 (A549 [10]): > 50000 nM
IC50 (PC-3): > 50000 nM
IC50 (DLD-1 [12]): > 50000 nM
IC50 (Huh-7): > 50000 nM
IC50 (DLD-1 [24]): 8000 nM
Structure (SMILES): C=C1CC2CC(C1)/C(=C\c1ccc(OC)c(OC)c1)C(=O)/C2=C/c1ccc(OC)c(OC)c1
IC50 [7]: > 50000 nM
IC50 (HuCCT-1): > 50000 nM
IC50 (8505C): > 50000 nM
IC50 [11]: > 50000 nM
IC50 (G-361): > 50000 nM
IC50 [13]: > 50000 nM
IC50 (GCIY): > 50000 nM

IC50 (HCT-116 [8]): 1000 nM
IC50 (ACHN): 1000 nM
IC50 (A-431): 1000 nM
IC50 (MCF7 [9]): 1000 nM
IC50 (A549 [10]): 1000 nM
IC50 (PC-3): 1000 nM
IC50 (DLD-1 [12]): 1000 nM
IC50 (Huh-7): 1000 nM
Structure (SMILES): COc1cc(/C=C/C(=O)/C=C/c2cc(OC)c(OC)c(OC)c2)cc(OC)c1O
IC50 [7]: 1000 nM
IC50 (HuCCT-1): 1000 nM
IC50 (8505C): 1000 nM
IC50 [11]: 1000 nM
IC50 (G-361): 1000 nM
IC50 (HUVEC [19]): 400 nM
IC50 [13]: 1000 nM
IC50 (GCIY): 1000 nM

IC50 (HCT-116 [25]): 250 nM
Structure (SMILES): COCOc1c(OC)cc(/C=C/C(=O)/C=C/c2cc(OC)c(OCOC)c(OC)c2)cc1OC
